How the values were obtained:
Type in all cases: in vivo
[1] = system: Amaranthus retoflexus (AMARE); experiment: Pre-emergence herbicidal test; details: 1000 g/ha, evaluated after 13 days
Setaria faberi (SETFA) [2] = experiment: Pre-emergence herbicidal test; details: 1000 g/ha, evaluated after 13 days
[3] = system: Echinochloa crus-galli (ECHCG); experiment: Pre-emergence herbicidal test; details: 1000 g/ha, evaluated after 13 days
[4] = system: Ipomoea hederacea (IPOHE); experiment: Pre-emergence herbicidal test; details: 1000 g/ha, evaluated after 13 days
[5] = system: Abutilon theophrasti (ABUTH); experiment: Pre-emergence herbicidal test; details: 1000 g/ha, evaluated after 13 days
Zea mays (ZEAMX) [6] = experiment: Pre-emergence herbicidal test; details: 1000 g/ha, evaluated after 13 days
[7] = system: Abutilon theophrasti (ABUTH); experiment: Post-emergence herbicidal test; details: 1000 g/ha unless otherwise stated, evaluated after 13 days
Description: (§1) Seeds of a variety of test species are sown in standard soil in pots (Amaranthus retoflexus (AMARE), Solanum nigrum (SOLNI), Setaria faberi (SETFA), Lolium perenne (LOLPE), Echinochloa crus-galli (ECHCG), Ipomoea hederacea (IPOHE), Abutilon theophrasti (ABUTH), Zea mays (ZEAMX)). After 8 days cultivation under controlled conditions in a glasshouse (at 24° C./16° C., day/night; 14 hours light; 65% humidity), the plants are sprayed with an aqueous spray solution derived from the formulation of the technical active ingredient in acetone/water (50:50) solution containing 0.5% Tween 20 (polyoxyethelyene sorbitan monolaurate, CAS RN 9005-64-5). Compounds are applied at 1000 g/ha unless otherwise stated. The test plants are then grown in a glasshouse under controlled conditions in a glasshouse (at 24° C./16° C., day/night; 14 hours light; 65% humidity) and watered twice daily. After 13 days the test is evaluated for the percentage damage caused to the plant. The biological activities are shown in the following table on a five-point scale (5=81-100%; 4=61-80%; 3=41-60%; 2=21-40%; 1=10-20%; 0=0%;−=not tested).

[8] = system: Amaranthus retoflexus (AMARE); experiment: Post-emergence herbicidal test; details: 1000 g/ha unless otherwise stated, evaluated after 13 days
Description: as §1

[9] = system: Echinochloa crus-galli (ECHCG); experiment: Post-emergence herbicidal test; details: 1000 g/ha unless otherwise stated, evaluated after 13 days
Description: as §1

[10] = system: Ipomoea hederacea (IPOHE); experiment: Post-emergence herbicidal test; details: 1000 g/ha unless otherwise stated, evaluated after 13 days
Description: as §1

Setaria faberi (SETFA) [11] = experiment: Post-emergence herbicidal test; details: 1000 g/ha unless otherwise stated, evaluated after 13 days
Description: as §1

Zea mays (ZEAMX) [12] = experiment: Post-emergence herbicidal test; details: 1000 g/ha unless otherwise stated, evaluated after 13 days
Description: as §1

| SMILES | percentage damage caused to the plant, five-point scale, AMARE [1] | percentage damage caused to the plant, five-point scale, SETFA (Setaria faberi (SETFA) [2]) | percentage damage caused to the plant, five-point scale, ECHCG [3] | percentage damage caused to the plant, five-point scale, IPOHE [4] | percentage damage caused to the plant, five-point scale, ABUTH [5] | percentage damage caused to the plant, five-point scale, ZEAMX (Zea mays (ZEAMX) [6]) | percentage damage caused to the plant, ABUTH (five-point scale) [7] | percentage damage caused to the plant, AMARE (five-point scale) [8] | percentage damage caused to the plant, ECHCG (five-point scale) [9] | percentage damage caused to the plant, IPOHE (five-point scale) [10] | percentage damage caused to the plant, SETFA (five-point scale) (Setaria faberi (SETFA) [11]) | percentage damage caused to the plant, ZEAMX (five-point scale) (Zea mays (ZEAMX) [12]) |
| --- | --- | --- | --- | --- | --- | --- | --- | --- | --- | --- | --- | --- |
| CS(=O)(=O)c1cc(F)cc2c1c(=O)c(C(=O)O)nn2-c1ccc(OC(F)(F)F)cc1 [Compound P21, 7-fluoro-5-methylsulfonyl-4-oxo-1-[4-(trifluoromethoxy)phenyl]cinnoline-3-carboxylic acid] | 0 (0=0%) | 4 (4=61-80%) | 2 (2=21-40%) | 0 (0=0%) | 0 (0=0%) | 1 (1=10-20%) | 0 (0=0%) | 0 (0=0%) | 2 (2=21-40%) | 0 (0=0%) | 2 (2=21-40%) | 0 (0=0%) |
| CCOC(=O)c1nn(-c2ccc(OC(F)(F)F)cc2)c2cccc(S(=O)(=O)CC)c2c1=O [Compound P22, ethyl 5-ethylsulfonyl-4-oxo-1-[4-(trifluoromethoxy)phenyl]cinnoline-3-carboxylate] | 0 (0=0%) | 0 (0=0%) | 0 (0=0%) | 0 (0=0%) | 0 (0=0%) | 0 (0=0%) | 1 (1=10-20%) | 1 (1=10-20%) | 1 (1=10-20%) | 1 (1=10-20%) | 1 (1=10-20%) | 0 (0=0%) |
| CCOC(=O)c1nn(-c2ccc(OC(F)(F)F)cc2)c2cccc(SCC)c2c1=O [Compound P23, ethyl 5-ethylsulfanyl-4-oxo-1-[4-(trifluoromethoxy)phenyl]cinnoline-3-carboxylate] | 0 (0=0%) | 0 (0=0%) | 0 (0=0%) | 0 (0=0%) | 0 (0=0%) | 1 (1=10-20%) | 1 (1=10-20%) | 0 (0=0%) | 1 (1=10-20%) | 1 (1=10-20%) | 1 (1=10-20%) | 1 (1=10-20%) |
| CCOC(=O)c1nn(-c2ccc(OC(F)(F)F)cc2)c2cccc([S+]([O-])CC)c2c1=O (stereo not drawn) [Compound P24, ethyl 5-ethylsulfinyl-4-oxo-1-[4-(trifluoromethoxy)phenyl]cinnoline-3-carboxylate] | 0 (0=0%) | 0 (0=0%) | 0 (0=0%) | 0 (0=0%) | 0 (0=0%) | 0 (0=0%) | 1 (1=10-20%) | 1 (1=10-20%) | 1 (1=10-20%) | 0 (0=0%) | 0 (0=0%) | 1 (1=10-20%) |
| CC[S+]([O-])c1cccc2c1c(=O)c(C(=O)O)nn2-c1ccc(OC(F)(F)F)cc1 (stereo not drawn) [Compound P25, 5-ethylsulfinyl-4-oxo-1-[4-(trifluoromethoxy)phenyl]cinnoline-3-carboxylic acid] | 0 (0=0%) | 1 (1=10-20%) | 0 (0=0%) | 0 (0=0%) | 0 (0=0%) | 0 (0=0%) | 1 (1=10-20%) | 0 (0=0%) | 1 (1=10-20%) | 1 (1=10-20%) | 2 (2=21-40%) | 1 (1=10-20%) |
| CCSc1cccc2c1c(=O)c(C(=O)O)nn2-c1ccc(OC(F)(F)F)cc1 [Compound P26, 5-ethylsulfanyl-4-oxo-1-[4-(trifluoromethoxy)phenyl]cinnoline-3-carboxylic acid] | 1 (1=10-20%) | 0 (0=0%) | 0 (0=0%) | 0 (0=0%) | 0 (0=0%) | 0 (0=0%) | 1 (1=10-20%) | 0 (0=0%) | 1 (1=10-20%) | 0 (0=0%) | 1 (1=10-20%) | 1 (1=10-20%) |
| CCS(=O)(=O)c1cccc2c1c(=O)c(C(=O)O)nn2-c1ccc(OC(F)(F)F)cc1 [Compound P27, 5-ethylsulfonyl-4-oxo-1-[4-(trifluoromethoxy)phenyl]cinnoline-3-carboxylic acid] | 0 (0=0%) | 3 (3=41-60%) | 0 (0=0%) | 0 (0=0%) | 0 (0=0%) | 1 (1=10-20%) | 1 (1=10-20%) | 0 (0=0%) | 2 (2=21-40%) | 0 (0=0%) | 2 (2=21-40%) | 1 (1=10-20%) |
| CCOC(=O)c1nn(-c2ccc(OC(F)(F)F)cc2)c2cccc([S+](C)[O-])c2c1=O (stereo not drawn) [Compound P28, ethyl 5-methylsulfinyl-4-oxo-1-[4-(trifluoromethoxy)phenyl]cinnoline-3-carboxylate] | 0 (0=0%) | 0 (0=0%) | 0 (0=0%) | 0 (0=0%) | 0 (0=0%) | 0 (0=0%) | 1 (1=10-20%) | 1 (1=10-20%) | 0 (0=0%) | 0 (0=0%) | 1 (1=10-20%) | 0 (0=0%) |

— patent publication US20230250066A1, “HERBICIDAL CINNOLINE DERIVATIVES” (SYNGENTA CROP PROTECTION AG, priority 2020, published 2023)
